Measurements published in patent US12428420B2, “Tricyclic heterocycles as FGFR inhibitors” (Incyte Corporation, priority 2021, dated 2025).

How the values were obtained:
[1] = biological target: wild-type un-phosphorylated FGFR3 protein (Homo sapiens, UniProt P22607); test: FGFR Enzymatic Assay (FRET peptide phosphorylation); assay type: biochemical; settings: pre-incubated for 4 hours
Procedure: The inhibitor potency of the exemplified compounds was determined in an enzyme discontinuous assay that measures peptide phosphorylation using FRET measurements to detect product formation. Inhibitors were serially diluted in DMSO and a volume of 0.2 μL was transferred to the wells of a 384-well plate. A 5 μL/well volume of enzyme isoforms of FGFR (-1, -2, -3 wild-type and mutant isoforms, -4) including phosphorylated and un-phosphorylated proteins diluted in assay buffer (50 mM HEPES, 10 mM MgCl2, 1 mM EGTA, 0.01% Tween-20, 5 mM DTT, pH 7.5) was added to the plate and pre-incubated with inhibitor for 5 to 15 minutes at ambient temperature. Appropriate controls (enzyme blank and enzyme with no inhibitor) were included on the plate. The reaction was initiated by the addition of a 5 μL/well volume containing both biotinylated [sequence] peptide substrate (SEQ ID NO: 1) and ATP in assay buffer. The 10 μL/well reaction concentration of the peptide substrate was 500 nM whereas the ATP concentration was maintained near or below the ATP Km. The ATP Km values were pre-determined in a separate series of experiments. The reaction plate was incubated at 25° C. for 1 hr and the reactions were ended with the addition of 5 μL/well of quench solution (50 mM Tris, 150 mM NaCl, 0.5 mg/mL BSA, pH 7.8; 45 mM EDTA, 600 nM staurosporin, with Perkin Elmer Lance Reagents at 3.75 nM Eu-antibody PY20 and 180 nM APC-Streptavidin). The plate was allowed to equilibrate for ˜10 minutes at ambient temperature before scanning on a PheraStar plate reader (BMG Labtech) instrument.
Either GraphPad prism or XLfit was used to analyze the data. The IC50 values were derived by fitting the data to a four parameter logistic equation producing a sigmoidal dose-response curve with a variable Hill coefficient. Prism equation: Y=Bottom+(Top−Bottom)/(1+10^((Log IC50−X)*Hill slope)); XLfit equation: Y=(A+((B−A)/(1+((X/C)^D)))) where X is the logarithm of inhibitor concentration and Y is the response.

RT-112/84 cell line = test: Luminescent Viability Assay (CellTiter-Glo); assay type: cell-based; settings: Homo sapiens, RT112/84, 72 h, RT-112/84 cell line (bladder, FGFR3-TACC3); 3 days
Procedure: RT112 cells (cell lines and genetic profiles further detailed in Table 2) were purchased from ATCC (Manassas, VA) and maintained in RPMI, 10% FBS (Gibco/Life Technologies). To measure the effect of test compounds on the viability of cells, the cells were plated with RPMI 10% FBS (5×10^3 cells/well/in 50 μL) into black 96-well Greiner polystyrene in the presence or absence of 50 μL of a concentration range of test compounds. After 3 days, 100 μL of CellTiter-Glo Reagent (Promega) was added. Luminescence was read with a TopCount (PerkinElmer). IC50 determination was performed by fitting the curve of percent inhibition versus the log of the inhibitor concentration using the GraphPad Prism 5.0 software.

Chain of wild-type un-phosphorylated FGFR3 protein (P22607 23-806): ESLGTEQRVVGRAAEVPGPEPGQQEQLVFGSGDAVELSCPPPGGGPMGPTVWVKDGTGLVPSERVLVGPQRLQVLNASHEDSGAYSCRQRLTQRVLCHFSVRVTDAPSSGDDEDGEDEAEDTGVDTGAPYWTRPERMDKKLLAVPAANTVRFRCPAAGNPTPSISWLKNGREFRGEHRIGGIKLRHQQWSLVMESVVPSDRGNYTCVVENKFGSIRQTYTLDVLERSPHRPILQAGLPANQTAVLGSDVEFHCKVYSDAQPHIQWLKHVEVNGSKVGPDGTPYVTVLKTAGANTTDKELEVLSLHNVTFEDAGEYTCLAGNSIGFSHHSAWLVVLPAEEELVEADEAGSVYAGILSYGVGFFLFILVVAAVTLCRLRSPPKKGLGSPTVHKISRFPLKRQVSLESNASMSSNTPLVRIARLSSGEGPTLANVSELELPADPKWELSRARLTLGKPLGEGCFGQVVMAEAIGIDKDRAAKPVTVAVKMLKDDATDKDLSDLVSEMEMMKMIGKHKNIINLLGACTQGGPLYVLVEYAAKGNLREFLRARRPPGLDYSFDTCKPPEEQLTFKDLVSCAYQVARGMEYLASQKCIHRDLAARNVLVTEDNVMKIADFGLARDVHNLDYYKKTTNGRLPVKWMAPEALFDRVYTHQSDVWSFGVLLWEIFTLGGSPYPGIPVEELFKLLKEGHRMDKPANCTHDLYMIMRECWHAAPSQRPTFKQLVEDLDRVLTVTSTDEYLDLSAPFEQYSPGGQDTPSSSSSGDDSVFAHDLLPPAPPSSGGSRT

Row | SMILES | IC50 [1] | IC50 (RT-112/84 cell line)
1 | O=C(c1ccc(-c2cnc3ccn4c(CO)c(-c5c(Cl)cccc5Cl)nc4c3c2)cc1)N1CCOCC1 [Example 6, (4-(2-(2,6-Dichlorophenyl)-3-(hydroxymethyl)imidazo[2,1-f][1,6]naphthyridin-9-yl)phenyl)(morpholino)methanone] | 1 to 5 nM | 10 to 50 nM
2 | CN1CCC(n2cc(-c3cnc4ccn5c(CCO)c(-c6c(Cl)cccc6Cl)nc5c4c3)cn2)CC1 [Example 34, 2-(2-(2,6-Dichlorophenyl)-9-(1-(1-methylpiperidin-4-yl)-1H-pyrazol-4-yl)imidazo[2,1-f][1,6]naphthyridin-3-yl)ethan-1-ol] | 1 to 5 nM | 10 to 50 nM
3 | O=S1(=O)CCCC(n2cc(-c3cnc4ccn5c(CO)c(-c6c(Cl)cccc6Cl)nc5c4c3)cn2)C1 (single isomer, unassigned) [26 peak 1] | 1 to 5 nM | 10 to 50 nM
4 | Cc1c(-c2c(Cl)cccc2Cl)nc2c3cc(-c4cnn(C5CN(C(=O)c6cn(C)nn6)C5)c4)cnc3ccn12 [Example 13, (3-(4-(2-(2,6-Dichlorophenyl)-3-methylimidazo[2,1-J][1,6]naphthyridin-9-yl)-1H-pyrazol-1-yl)azetidin-1-yl)(1-methyl-1H-1,2,3-triazol-4-yl)methanone] | 1 to 5 nM | 10 to 50 nM
5 | CC(=O)N1CCN(Cc2ccc(-c3cnc4ccn5c(CO)c(-c6c(Cl)cccc6Cl)nc5c4c3)cc2)CC1 [Example 9, 1-(4-(4-(2-(2,6-Dichlorophenyl)-3-(hydroxymethyl)imidazo[2,1-f][1,6]naphthyridin-9-yl)benzyl)piperazin-1-yl)ethan-1-one] | 1 to 5 nM | 10 to 50 nM
6 | O=C(CO)N1CCN(Cc2ccc(-c3cnc4ccn5c(CO)c(-c6c(Cl)cccc6Cl)nc5c4c3)cc2)CC1 [Example 8, 1-(4-(4-(2-(2,6-Dichlorophenyl)-3-(hydroxymethyl)imidazo[2,1-f][1,6]naphthyridin-9-yl)benzyl)piperazin-1-yl)-2-hydroxyethan-1-one] | 1 to 5 nM | 10 to 50 nM
7 | COCC(=O)N1CCC(n2cc(-c3cnc4ccn5c(CO)c(-c6c(C)cccc6Cl)nc5c4c3)cn2)CC1 [Example 21, 1-(4-(4-(2-(2-Chloro-6-methylphenyl)-3-(hydroxymethyl)imidazo[2,1-f][1,6]naphthyridin-9-yl)-1H-pyrazol-1-yl)piperidin-1-yl)-2-methoxyethan-1-one] | 1 to 5 nM | < 10 nM
8 | Cc1cccc(Cl)c1-c1nc2c3cc(-c4cnn(CC(C)(C)O)c4)cnc3ccn2c1CO [Example 22, 1-(4-(2-(2-Chloro-6-methylphenyl)-3-(hydroxymethyl)imidazo[2,1-f][1,6]naphthyridin-9-yl)-1H-pyrazol-1-yl)-2-methylpropan-2-ol] | 1 to 5 nM | 10 to 50 nM

Continued, in another order:

Row | IC50 [1] | SMILES | IC50 (RT-112/84 cell line)
9 | 1 to 5 nM | OCc1c(-c2c(Cl)cccc2Cl)nc2c3cc(-c4cnn(Cc5ccncn5)c4)cnc3ccn12 [Example 1, (2-(2,6-Dichlorophenyl)-9-(1-(pyrimidin-4-ylmethyl)-1H-pyrazol-4-yl)imidazo[2,1-J][1,6]naphthyridin-3-yl)methanol] | 10 to 50 nM
10 | 1 to 5 nM | CCn1cc(-c2cnc3ccn4c(CO)c(-c5c(Cl)cccc5Cl)nc4c3c2)cn1 [Example 15, (2-(2,6-Dichlorophenyl)-9-(1-ethyl-1H-pyrazol-4-yl)imidazo[2,1-f][1,6]naphthyridin-3-yl)methanol] | < 10 nM
11 | < 1 nM | N#Cc1cncc(Cn2cc(-c3cnc4ccn5c(CO)c(-c6c(Cl)cccc6Cl)nc5c4c3)cn2)c1 [Example 2, 5-((4-(2-(2,6-Dichlorophenyl)-3-(hydroxymethyl)imidazo[2,1-f][1,6]naphthyridin-9-yl)-1H-pyrazol-1-yl)methyl)nicotinonitrile] | 10 to 50 nM
12 | < 1 nM | CC(CC#N)n1cc(-c2cnc3ccn4c(CO)c(-c5c(Cl)cccc5Cl)nc4c3c2)cn1 (single isomer, unassigned) [23 peak 1] | 10 to 50 nM
13 | < 1 nM | CN(C)C(=O)c1ccc(Cn2cc(-c3cnc4ccn5c(CO)c(-c6c(Cl)cccc6Cl)nc5c4c3)cn2)cn1 [Example 12, 5-((4-(2-(2,6-Dichlorophenyl)-3-(hydroxymethyl)imidazo[2,1-f][1,6]naphthyridin-9-yl)-1H-pyrazol-1-yl)methyl)-N,N-dimethylpicolinamide] | < 10 nM
14 | 1 to 5 nM | CC(C)(C#N)n1cc(-c2cnc3ccn4c(CO)c(-c5c(Cl)cccc5Cl)nc4c3c2)cn1 [Example 16, 2-(4-(2-(2,6-Dichlorophenyl)-3-(hydroxymethyl)imidazo[2,1-f][1,6]naphthyridin-9-yl)-1H-pyrazol-1-yl)-2-methylpropanenitrile] | 10 to 50 nM
15 | 1 to 5 nM | COCC(=O)N1CC(Cn2cc(-c3cnc4ccn5c(CO)c(-c6c(Cl)cccc6Cl)nc5c4c3)cn2)C1 [Example 27, 1-(3-((4-(2-(2,6-Dichlorophenyl)-3-(hydroxymethyl)imidazo[2,1-f][1,6]naphthyridin-9-yl)-1H-pyrazol-1-yl)methyl)azetidin-1-yl)-2-methoxyethan-1-one] | 10 to 50 nM
16 | < 1 nM | OCc1c(-c2c(Cl)cccc2Cl)nc2c3cc(-c4cnn(CC5(F)CCOCC5)c4)cnc3ccn12 [Example 25, (2-(2,6-Dichlorophenyl)-9-(1-((4-fluorotetrahydro-2H-pyran-4-yl)methyl)-1H-pyrazol-4-yl)imidazo[2,1-J][1,6]naphthyridin-3-yl)methanol] | < 10 nM
